Assay results from article PMC8800111 (The Journal of Biological Chemistry, 2021).

Tests used:
DHFR = molecular target: T1, DHFR (Homo sapiens, UniProt P00374); assay: Cellular thermal shift assay (CETSA) in U3A cell lysate; assay type: binding; conditions: 10 μM, 10 min
T1 sequence (P00374 1-187): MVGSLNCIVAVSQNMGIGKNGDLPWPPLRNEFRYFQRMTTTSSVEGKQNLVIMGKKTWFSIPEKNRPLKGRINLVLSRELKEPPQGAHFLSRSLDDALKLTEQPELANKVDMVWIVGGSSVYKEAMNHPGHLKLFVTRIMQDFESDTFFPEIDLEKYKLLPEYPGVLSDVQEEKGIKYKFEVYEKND
Protocol: Protein abundance was measured by immunoblotting and band quantification.
U3A cells were cultured in DMEM (Thermo Fisher Scientific) with 10% heat-inactivated fetal bovine serum and 1% penicillin/streptomycin. […] Cells were washed once with PBS, harvested using trypsin, and centrifuged at 300g. The pellet was resuspended in Tris-buffered saline (TBS) supplemented with cOmplete protease inhibitor cocktail (Roche), aliquoted (50 μl; 8 × 10^5 cells per temperature) into PCR strip tubes, and heated at the indicated temperature in a Veriti Thermal Cycler (Applied Biosystems) for 3 min, then cooled for another 3 min at room temperature. Cells were then lysed by freeze–thawing three times with 3-min incubations in an ethanol/dry ice bath and a water bath at 37 °C. The lysates were then centrifuged at 17,000g for 20 min at 4 °C to remove cellular debris and pelleted protein aggregates. Supernatants (40 μl) were transferred to new tubes and prepared for immunoblotting. […] Briefly, U3A cells in exponential growth rate were collected, resuspended in TBS supplemented with cOmplete protease inhibitor cocktail (Roche), lysed by freeze–thaw cycle, and centrifuged at 17,000g for 20 min at 4 °C. […] Band intensities were quantified using Fiji ([42]) and then plotted and fitted in GraphPad Prism (GraphPad Software, Inc) to obtain apparent Tagg values.

U3A cells = assay: Cellular ATP levels (CellTiter-Glo); assay type: cell-based, human; conditions: 10 μM, 6 h
[1] = molecular target: proteins of U3A human fibrosarcoma cells (4462 proteins detected) (Homo sapiens, UniProt Q8TF74); assay type: cell-based; conditions: protein WIPF2, U3A cells
[2] = molecular target: proteins of U3A human fibrosarcoma cells (4462 proteins detected) (Homo sapiens, UniProt P48643); assay type: cell-based; conditions: protein CCT5; U3A cells
[3] = molecular target: proteins of U3A human fibrosarcoma cells (4462 proteins detected) (Homo sapiens, UniProt P61088); assay type: cell-based; conditions: protein UBE2N; UBE2NL; U3A cells
[4] = molecular target: proteins of U3A human fibrosarcoma cells (4462 proteins detected) (Homo sapiens, UniProt Q9BSJ8); assay type: cell-based; conditions: protein ESYT1; U3A cells
[5] = molecular target: proteins of U3A human fibrosarcoma cells (4462 proteins detected) (Homo sapiens, UniProt O94829); assay type: cell-based; conditions: protein IPO13; U3A cells
[6] = molecular target: proteins of U3A human fibrosarcoma cells (4462 proteins detected) (Homo sapiens, UniProt P49459); assay type: cell-based; conditions: protein UBE2A, U3A cells
[7] = molecular target: proteins of U3A human fibrosarcoma cells (4462 proteins detected) (Homo sapiens, UniProt Q9NRL2); assay type: cell-based; conditions: protein BAZ1A; U3A cells
[8] = molecular target: proteins of U3A human fibrosarcoma cells (4462 proteins detected) (Homo sapiens, UniProt P49247); assay type: cell-based; conditions: protein RPIA, U3A cells
[9] = molecular target: proteins of U3A human fibrosarcoma cells (4462 proteins detected) (Homo sapiens, UniProt Q13829); assay type: cell-based; conditions: protein TNFAIP1; U3A cells
[10] = molecular target: proteins of U3A human fibrosarcoma cells (4462 proteins detected) (Homo sapiens, UniProt A0MZ66); assay type: cell-based; conditions: protein KIAA1598; U3A, 10 μM, 2 h
[11] = molecular target: proteins of U3A human fibrosarcoma cells (4462 proteins detected) (Homo sapiens, UniProt O00622); assay type: cell-based; conditions: protein CYR61; U3A cells
[12] = molecular target: proteins of U3A human fibrosarcoma cells (4462 proteins detected) (Homo sapiens, UniProt Q9NVU7); assay type: cell-based; conditions: protein SDAD1; soluble abundance after heat, U3A cells
[13] = molecular target: proteins of U3A human fibrosarcoma cells (4462 proteins detected) (Homo sapiens, UniProt Q6SJ93); assay type: cell-based; conditions: protein FAM111B; U3A cells
[14] = molecular target: proteins of U3A human fibrosarcoma cells (4462 proteins detected) (Homo sapiens, UniProt O95292); assay type: cell-based; conditions: protein VAPB; U3A cells
[15] = molecular target: proteins of U3A human fibrosarcoma cells (4462 proteins detected) (Homo sapiens, UniProt P62993); assay type: cell-based; conditions: protein GRB2, U3A cells
[16] = molecular target: proteins of U3A human fibrosarcoma cells (4462 proteins detected) (Homo sapiens, UniProt Q9BRA2); assay type: cell-based; conditions: protein TXNDC17, U3A cells
[17] = molecular target: proteins of U3A human fibrosarcoma cells (4462 proteins detected) (Homo sapiens, UniProt P23396); assay type: cell-based; conditions: protein RPS3; soluble abundance after heat, U3A cells
[18] = molecular target: proteins of U3A human fibrosarcoma cells (4462 proteins detected) (Homo sapiens, UniProt Q8WXD5); assay type: cell-based; conditions: protein GEMIN6, U3A cells
[19] = molecular target: proteins of U3A human fibrosarcoma cells (4462 proteins detected) (Homo sapiens, UniProt P49841); assay type: cell-based; conditions: protein GSK3B; soluble abundance after heat, U3A cells
[20] = molecular target: proteins of U3A human fibrosarcoma cells (4462 proteins detected) (Homo sapiens, UniProt P26038); assay type: cell-based; conditions: protein MSN, U3A cells
[21] = molecular target: proteins of U3A human fibrosarcoma cells (4462 proteins detected) (Homo sapiens, UniProt P26006); assay type: cell-based; conditions: protein ITGA3; U3A cells
[22] = molecular target: proteins of U3A human fibrosarcoma cells (4462 proteins detected) (Homo sapiens, UniProt Q13131); assay type: cell-based; conditions: protein PRKAA1; U3A cells
[23] = molecular target: proteins of U3A human fibrosarcoma cells (4462 proteins detected) (Homo sapiens, UniProt Q9NRL3); assay type: cell-based; conditions: protein STRN4; U3A cells
[24] = molecular target: proteins of U3A human fibrosarcoma cells (4462 proteins detected) (Homo sapiens, UniProt P08174); assay type: cell-based; conditions: protein CD55; U3A cells

proteins of U3A human fibrosarcoma cells (4462 proteins detected) (Homo sapiens, UniProt P26006), sequence (P26006 33-1051): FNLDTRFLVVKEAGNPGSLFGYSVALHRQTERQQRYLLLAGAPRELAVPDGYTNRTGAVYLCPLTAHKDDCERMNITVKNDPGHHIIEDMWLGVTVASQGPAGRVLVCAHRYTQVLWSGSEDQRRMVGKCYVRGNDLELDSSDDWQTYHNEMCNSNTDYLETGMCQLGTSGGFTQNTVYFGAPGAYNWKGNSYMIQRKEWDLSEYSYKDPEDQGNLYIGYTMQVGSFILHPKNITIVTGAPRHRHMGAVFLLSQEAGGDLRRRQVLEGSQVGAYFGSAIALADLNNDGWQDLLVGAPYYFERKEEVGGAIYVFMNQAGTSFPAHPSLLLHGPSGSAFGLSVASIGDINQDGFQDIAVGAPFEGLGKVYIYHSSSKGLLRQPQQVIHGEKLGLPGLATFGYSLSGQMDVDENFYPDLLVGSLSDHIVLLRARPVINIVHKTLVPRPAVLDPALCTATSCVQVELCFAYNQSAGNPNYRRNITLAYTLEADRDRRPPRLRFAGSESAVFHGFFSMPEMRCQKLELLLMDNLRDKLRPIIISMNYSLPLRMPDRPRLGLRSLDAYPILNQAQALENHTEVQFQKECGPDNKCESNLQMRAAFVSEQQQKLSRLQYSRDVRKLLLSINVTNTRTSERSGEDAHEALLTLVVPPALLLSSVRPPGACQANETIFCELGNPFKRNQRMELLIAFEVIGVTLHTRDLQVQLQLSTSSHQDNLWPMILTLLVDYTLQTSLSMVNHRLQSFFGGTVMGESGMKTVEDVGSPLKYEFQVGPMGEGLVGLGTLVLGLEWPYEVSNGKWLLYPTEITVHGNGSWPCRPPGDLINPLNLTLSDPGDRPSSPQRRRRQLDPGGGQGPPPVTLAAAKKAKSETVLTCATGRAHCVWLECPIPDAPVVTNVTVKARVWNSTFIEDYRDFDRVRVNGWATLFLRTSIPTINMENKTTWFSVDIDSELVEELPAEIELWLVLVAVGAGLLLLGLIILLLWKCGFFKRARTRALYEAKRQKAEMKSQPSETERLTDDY
proteins of U3A human fibrosarcoma cells (4462 proteins detected) (Homo sapiens, UniProt Q13131), sequence (Q13131 whole entry): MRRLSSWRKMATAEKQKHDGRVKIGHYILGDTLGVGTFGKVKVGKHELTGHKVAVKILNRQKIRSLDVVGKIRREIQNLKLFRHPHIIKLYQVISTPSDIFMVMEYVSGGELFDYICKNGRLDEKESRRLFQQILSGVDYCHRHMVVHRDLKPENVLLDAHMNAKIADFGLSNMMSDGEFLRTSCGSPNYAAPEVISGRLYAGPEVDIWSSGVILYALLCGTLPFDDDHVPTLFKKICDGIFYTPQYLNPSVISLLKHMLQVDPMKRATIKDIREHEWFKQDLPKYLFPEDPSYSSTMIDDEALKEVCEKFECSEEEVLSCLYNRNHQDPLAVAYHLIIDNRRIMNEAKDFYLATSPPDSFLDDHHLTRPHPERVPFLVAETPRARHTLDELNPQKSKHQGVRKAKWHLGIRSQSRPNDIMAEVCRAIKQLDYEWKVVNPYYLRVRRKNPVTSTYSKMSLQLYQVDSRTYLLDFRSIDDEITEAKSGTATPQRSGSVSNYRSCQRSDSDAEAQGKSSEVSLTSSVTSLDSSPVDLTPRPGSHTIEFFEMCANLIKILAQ
proteins of U3A human fibrosarcoma cells (4462 proteins detected) (Homo sapiens, UniProt Q9NRL2), sequence (Q9NRL2 whole entry): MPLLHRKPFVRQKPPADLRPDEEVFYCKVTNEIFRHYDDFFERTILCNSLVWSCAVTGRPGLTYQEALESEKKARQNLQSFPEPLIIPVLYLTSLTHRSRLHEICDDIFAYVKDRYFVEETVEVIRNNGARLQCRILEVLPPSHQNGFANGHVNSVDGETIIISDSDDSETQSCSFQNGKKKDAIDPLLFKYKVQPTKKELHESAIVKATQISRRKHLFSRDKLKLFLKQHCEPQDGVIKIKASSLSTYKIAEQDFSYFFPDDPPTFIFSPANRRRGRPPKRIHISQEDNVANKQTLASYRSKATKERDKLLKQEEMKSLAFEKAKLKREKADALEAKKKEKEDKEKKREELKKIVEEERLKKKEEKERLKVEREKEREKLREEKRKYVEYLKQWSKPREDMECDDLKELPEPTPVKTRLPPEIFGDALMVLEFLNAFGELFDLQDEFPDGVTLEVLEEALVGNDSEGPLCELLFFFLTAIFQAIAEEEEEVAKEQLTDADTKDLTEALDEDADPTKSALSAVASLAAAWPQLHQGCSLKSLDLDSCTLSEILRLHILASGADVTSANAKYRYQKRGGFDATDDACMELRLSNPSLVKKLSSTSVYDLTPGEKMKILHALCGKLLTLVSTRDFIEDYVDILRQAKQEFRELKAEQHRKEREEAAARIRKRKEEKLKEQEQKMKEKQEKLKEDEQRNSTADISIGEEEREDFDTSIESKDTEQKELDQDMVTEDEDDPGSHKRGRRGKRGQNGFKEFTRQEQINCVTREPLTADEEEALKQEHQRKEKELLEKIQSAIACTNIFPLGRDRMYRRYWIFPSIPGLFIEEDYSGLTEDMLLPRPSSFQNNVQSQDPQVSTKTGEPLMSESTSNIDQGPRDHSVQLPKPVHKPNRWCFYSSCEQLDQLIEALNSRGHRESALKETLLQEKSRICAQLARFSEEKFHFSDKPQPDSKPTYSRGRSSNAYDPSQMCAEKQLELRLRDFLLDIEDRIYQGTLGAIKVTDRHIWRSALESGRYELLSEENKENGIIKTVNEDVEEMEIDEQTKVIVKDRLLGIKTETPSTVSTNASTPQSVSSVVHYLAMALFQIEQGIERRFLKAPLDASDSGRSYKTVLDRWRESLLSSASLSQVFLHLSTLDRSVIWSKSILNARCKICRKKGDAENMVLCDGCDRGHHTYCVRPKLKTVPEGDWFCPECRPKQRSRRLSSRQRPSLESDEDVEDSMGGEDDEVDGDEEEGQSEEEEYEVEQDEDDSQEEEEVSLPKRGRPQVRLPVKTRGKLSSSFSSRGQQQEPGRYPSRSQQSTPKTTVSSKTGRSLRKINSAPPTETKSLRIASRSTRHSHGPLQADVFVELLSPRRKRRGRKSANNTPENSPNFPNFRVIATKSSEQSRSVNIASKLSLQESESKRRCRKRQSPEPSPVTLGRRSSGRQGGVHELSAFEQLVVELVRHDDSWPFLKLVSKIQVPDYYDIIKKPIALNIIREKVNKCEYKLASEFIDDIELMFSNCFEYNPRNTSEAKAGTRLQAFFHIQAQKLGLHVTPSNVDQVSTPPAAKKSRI
proteins of U3A human fibrosarcoma cells (4462 proteins detected) (Homo sapiens, UniProt O95292), sequence (O95292 whole entry): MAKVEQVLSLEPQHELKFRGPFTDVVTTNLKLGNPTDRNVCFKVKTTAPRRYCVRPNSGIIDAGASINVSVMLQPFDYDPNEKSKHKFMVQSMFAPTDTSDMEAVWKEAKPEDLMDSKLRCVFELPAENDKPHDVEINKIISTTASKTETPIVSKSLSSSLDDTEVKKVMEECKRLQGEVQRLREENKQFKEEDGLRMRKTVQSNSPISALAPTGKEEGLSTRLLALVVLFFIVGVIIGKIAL
proteins of U3A human fibrosarcoma cells (4462 proteins detected) (Homo sapiens, UniProt P49247), sequence (P49247 whole entry): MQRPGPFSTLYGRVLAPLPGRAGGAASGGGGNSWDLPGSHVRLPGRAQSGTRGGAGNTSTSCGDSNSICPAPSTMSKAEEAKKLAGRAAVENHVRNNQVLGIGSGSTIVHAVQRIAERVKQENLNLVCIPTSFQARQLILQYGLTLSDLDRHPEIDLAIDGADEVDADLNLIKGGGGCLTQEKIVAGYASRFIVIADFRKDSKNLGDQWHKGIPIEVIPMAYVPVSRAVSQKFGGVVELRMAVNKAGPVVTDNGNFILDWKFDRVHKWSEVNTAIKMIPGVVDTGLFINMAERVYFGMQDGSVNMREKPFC
proteins of U3A human fibrosarcoma cells (4462 proteins detected) (Homo sapiens, UniProt P48643), sequence (P48643 whole entry): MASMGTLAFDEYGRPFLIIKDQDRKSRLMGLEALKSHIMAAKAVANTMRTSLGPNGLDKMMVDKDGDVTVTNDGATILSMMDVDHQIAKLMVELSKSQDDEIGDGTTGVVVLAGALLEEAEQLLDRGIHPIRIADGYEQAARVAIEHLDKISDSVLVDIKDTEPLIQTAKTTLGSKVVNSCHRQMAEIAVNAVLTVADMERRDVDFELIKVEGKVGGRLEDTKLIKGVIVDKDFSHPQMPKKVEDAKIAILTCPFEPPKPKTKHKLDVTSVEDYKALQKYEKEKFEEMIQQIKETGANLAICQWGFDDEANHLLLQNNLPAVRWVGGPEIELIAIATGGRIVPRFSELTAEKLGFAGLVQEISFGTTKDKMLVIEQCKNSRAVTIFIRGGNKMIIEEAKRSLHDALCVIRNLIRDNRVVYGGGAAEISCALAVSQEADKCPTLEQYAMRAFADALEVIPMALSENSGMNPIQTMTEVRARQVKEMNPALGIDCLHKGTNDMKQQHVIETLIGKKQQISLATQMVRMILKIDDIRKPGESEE
proteins of U3A human fibrosarcoma cells (4462 proteins detected) (Homo sapiens, UniProt Q8TF74), sequence (Q8TF74 whole entry): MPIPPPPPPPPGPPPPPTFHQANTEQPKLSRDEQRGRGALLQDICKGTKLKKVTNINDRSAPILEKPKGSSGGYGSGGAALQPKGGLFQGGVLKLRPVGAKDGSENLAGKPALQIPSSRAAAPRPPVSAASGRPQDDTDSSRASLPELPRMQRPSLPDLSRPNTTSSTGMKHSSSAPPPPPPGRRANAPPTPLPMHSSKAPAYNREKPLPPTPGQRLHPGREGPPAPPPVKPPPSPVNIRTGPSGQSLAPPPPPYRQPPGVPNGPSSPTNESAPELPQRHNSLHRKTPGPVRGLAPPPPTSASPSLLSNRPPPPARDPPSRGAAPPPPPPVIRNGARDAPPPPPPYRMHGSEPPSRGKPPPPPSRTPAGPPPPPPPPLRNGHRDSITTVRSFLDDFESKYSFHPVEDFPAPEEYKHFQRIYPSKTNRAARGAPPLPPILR
proteins of U3A human fibrosarcoma cells (4462 proteins detected) (Homo sapiens, UniProt Q8WXD5), sequence (Q8WXD5 whole entry): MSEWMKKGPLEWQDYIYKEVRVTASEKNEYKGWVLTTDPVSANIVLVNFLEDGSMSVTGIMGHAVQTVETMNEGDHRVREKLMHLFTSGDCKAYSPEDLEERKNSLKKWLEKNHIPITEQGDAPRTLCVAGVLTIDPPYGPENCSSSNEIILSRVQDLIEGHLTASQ
proteins of U3A human fibrosarcoma cells (4462 proteins detected) (Homo sapiens, UniProt Q9BRA2), sequence (Q9BRA2 whole entry): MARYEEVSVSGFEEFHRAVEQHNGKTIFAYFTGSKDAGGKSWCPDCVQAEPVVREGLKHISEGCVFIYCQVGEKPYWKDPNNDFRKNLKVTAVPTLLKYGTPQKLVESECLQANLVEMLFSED

Compound: CCc1nc(N)nc(N)c1-c1ccc(Cl)cc1 [pyrimethamine]
- DHFR aggregation temperature (Tagg) in the presence of drug (DHFR): ~53.2 °C
- reduction of cellular ATP levels (U3A cells): about 75%
- Log2 (PYR/DMSO) [1]: -0.05
- Log2 (PYR/DMSO) [2]: 0.19
- Log2 (PYR/DMSO) [3]: 0.21
- Log2 (PYR/DMSO) [4]: 0.20
- Log2 (PYR/DMSO) [5]: 0.19
- Log2 (PYR/DMSO) [6]: -0.04
- Log2 (PYR/DMSO) [7]: 0.19
- Log2 (PYR/DMSO) [8]: -0.05
- Log2 (PYR/DMSO) [9]: 0.21
- Log2 (PYR/DMSO), KIAA1598 [10]: -0.28
- Log2 (PYR/DMSO) [11]: 0.21
- Log2 (PYR/DMSO) [12]: 0.15
- Log2 (PYR/DMSO) [13]: 0.20
- Log2 (PYR/DMSO) [14]: 0.19
- Log2 (PYR/DMSO) [15]: -0.04
- Log2 (PYR/DMSO) [16]: -0.05
- Log2 (PYR/DMSO) [17]: 0.13
- Log2 (PYR/DMSO) [18]: -0.04
- Log2 (PYR/DMSO) [19]: 0.15
- Log2 (PYR/DMSO) [20]: -0.04
- Log2 (PYR/DMSO) [21]: 0.16
- Log2 (PYR/DMSO) [22]: 0.19
- Log2 (PYR/DMSO) [23]: 0.16
- Log2 (PYR/DMSO) [24]: 0.20
